Where two headings read alike, the source gives them in different places.
Assays:
[1] = target: T1, α2C adrenergic receptor (Homo sapiens, UniProt P18825); type: cell-based
T1 sequence (P18825 1-462): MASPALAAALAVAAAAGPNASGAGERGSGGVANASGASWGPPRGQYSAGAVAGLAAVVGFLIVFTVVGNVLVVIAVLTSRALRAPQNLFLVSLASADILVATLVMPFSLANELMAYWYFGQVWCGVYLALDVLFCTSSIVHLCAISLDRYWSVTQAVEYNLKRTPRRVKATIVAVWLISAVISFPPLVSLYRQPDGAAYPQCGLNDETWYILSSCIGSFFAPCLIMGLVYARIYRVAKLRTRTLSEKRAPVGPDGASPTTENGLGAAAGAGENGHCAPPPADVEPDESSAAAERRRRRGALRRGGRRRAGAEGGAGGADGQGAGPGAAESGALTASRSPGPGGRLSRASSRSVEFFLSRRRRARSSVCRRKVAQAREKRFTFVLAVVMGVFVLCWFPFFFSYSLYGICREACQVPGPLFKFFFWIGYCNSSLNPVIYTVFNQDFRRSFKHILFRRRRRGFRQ

[2] = target: T2, α1D adrenergic receptor (Homo sapiens, UniProt P25100); type: cell-based
T2 sequence (P25100 1-572): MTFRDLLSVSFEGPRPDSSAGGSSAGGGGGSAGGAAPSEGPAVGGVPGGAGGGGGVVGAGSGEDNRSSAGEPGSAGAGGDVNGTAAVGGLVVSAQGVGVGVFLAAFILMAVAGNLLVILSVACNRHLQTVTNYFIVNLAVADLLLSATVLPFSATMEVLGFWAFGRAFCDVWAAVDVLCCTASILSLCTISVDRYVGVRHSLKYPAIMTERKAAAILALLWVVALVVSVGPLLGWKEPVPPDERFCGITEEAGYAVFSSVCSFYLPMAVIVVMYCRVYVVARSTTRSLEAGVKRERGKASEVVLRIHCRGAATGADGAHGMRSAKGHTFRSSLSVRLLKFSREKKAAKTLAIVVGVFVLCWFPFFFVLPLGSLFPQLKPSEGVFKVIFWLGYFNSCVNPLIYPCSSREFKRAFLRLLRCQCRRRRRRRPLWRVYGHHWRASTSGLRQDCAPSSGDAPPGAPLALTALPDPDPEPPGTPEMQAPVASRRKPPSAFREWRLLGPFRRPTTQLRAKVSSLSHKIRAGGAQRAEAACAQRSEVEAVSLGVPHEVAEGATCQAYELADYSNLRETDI

[3] = target: T3, α1A adrenergic receptor (Homo sapiens, UniProt P35348); type: cell-based
T3 sequence (P35348 1-466): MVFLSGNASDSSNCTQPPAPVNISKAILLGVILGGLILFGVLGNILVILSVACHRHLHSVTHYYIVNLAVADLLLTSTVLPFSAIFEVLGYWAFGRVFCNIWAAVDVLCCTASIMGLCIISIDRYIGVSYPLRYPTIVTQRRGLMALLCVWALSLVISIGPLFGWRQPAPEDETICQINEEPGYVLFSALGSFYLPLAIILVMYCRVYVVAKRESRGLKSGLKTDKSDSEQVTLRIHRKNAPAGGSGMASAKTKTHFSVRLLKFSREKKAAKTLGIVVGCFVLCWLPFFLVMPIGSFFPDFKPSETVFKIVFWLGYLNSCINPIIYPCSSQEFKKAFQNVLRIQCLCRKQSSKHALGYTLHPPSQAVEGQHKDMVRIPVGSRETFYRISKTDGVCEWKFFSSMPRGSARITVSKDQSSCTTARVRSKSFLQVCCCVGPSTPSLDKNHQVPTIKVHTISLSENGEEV

[4] = target: MOP (Homo sapiens, UniProt P35372); type: cell-based
[5] = target: T4, α1B adrenergic receptor (Homo sapiens, UniProt P35368); type: cell-based
T4 sequence (P35368 1-520): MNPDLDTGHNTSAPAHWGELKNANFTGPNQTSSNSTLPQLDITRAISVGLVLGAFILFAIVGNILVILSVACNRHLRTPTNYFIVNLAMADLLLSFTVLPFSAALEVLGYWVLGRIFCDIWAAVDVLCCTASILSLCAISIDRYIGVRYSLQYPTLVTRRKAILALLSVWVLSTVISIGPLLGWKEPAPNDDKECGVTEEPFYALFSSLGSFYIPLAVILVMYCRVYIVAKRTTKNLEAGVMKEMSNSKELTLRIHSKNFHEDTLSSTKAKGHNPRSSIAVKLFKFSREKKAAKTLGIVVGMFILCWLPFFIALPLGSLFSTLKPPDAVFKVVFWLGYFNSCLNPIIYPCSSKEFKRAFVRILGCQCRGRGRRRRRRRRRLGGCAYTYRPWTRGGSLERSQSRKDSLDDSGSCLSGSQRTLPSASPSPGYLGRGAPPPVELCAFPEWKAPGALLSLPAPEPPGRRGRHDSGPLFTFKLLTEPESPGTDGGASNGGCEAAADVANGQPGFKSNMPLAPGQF

[6] = target: T5, adrenergic α1B receptor (Homo sapiens, UniProt P35368); experiment: Radioligand binding, adrenergic α1B
T5 sequence (P35368 1-520): T4 sequence (P35368 1-520)

[7] = target: T6, adrenergic α1D receptor (Homo sapiens, UniProt P25100); experiment: Radioligand binding, adrenergic α1D
T6 sequence (P25100 1-572): T2 sequence (P25100 1-572)

[8] = target: delta opioid receptor (DOP) (Homo sapiens, UniProt P41143); experiment: Radioligand binding, delta opioid receptor
[9] = target: mu opioid receptor (MOP) (Homo sapiens, UniProt P35372); type: binding
[10] = target: T7, adrenergic α2A receptor (Homo sapiens, UniProt P08913); experiment: Radioligand binding, adrenergic α2A
T7 sequence (P08913 1-465): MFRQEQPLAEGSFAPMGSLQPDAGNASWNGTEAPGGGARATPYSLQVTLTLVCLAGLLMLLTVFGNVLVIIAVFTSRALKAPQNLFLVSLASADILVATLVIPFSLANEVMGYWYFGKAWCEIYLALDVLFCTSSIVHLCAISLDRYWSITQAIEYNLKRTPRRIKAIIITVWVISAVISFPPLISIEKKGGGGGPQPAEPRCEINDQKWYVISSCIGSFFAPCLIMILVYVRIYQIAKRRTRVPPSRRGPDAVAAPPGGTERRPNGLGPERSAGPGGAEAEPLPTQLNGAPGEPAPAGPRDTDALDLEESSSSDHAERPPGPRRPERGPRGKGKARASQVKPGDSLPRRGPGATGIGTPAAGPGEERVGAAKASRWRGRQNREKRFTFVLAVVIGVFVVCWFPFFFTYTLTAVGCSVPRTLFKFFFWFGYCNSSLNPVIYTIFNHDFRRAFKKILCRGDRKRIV

[11] = target: T8, adrenergic α1A receptor (Homo sapiens, UniProt P35348); experiment: Radioligand binding, adrenergic α1A
T8 sequence (P35348 1-466): T3 sequence (P35348 1-466)

[12] = target: T9, adrenergic α2B receptor (Homo sapiens, UniProt P18089); type: binding
T9 sequence (P18089 1-450): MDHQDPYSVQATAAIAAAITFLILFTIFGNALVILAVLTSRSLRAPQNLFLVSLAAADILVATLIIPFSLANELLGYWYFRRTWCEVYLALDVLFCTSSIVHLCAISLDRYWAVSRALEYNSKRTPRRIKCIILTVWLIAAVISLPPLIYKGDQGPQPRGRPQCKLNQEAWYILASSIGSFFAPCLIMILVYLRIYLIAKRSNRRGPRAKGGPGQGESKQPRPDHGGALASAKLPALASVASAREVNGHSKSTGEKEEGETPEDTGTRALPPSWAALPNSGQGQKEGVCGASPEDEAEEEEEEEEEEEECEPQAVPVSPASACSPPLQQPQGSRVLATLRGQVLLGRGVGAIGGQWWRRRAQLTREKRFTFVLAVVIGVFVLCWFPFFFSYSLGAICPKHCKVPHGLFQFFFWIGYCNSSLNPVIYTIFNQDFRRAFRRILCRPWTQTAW

[13] = target: nociceptin NOP (ORL1) (Homo sapiens, UniProt P41146); experiment: Radioligand binding, nociceptin receptor
[14] = tested on: Sprague-Dawley rats; conditions: rat, in vivo, iv
[15] = tested on: rats; conditions: Sprague-Dawley, rat, in vivo
[16] = tested on: Sprague-Dawley rats; conditions: rat, in vivo, iv, 10 mg/kg
[17] = tested on: human opioid receptors (MOP); conditions: BRET assay; in words ref 14; cited from earlier work
[18] = tested on: guinea pig ileum; conditions: in words ref 15; cited from earlier work
[19] = target: KOP (Homo sapiens, UniProt P41145); experiment: cell-based; type: cell-based
Chain of KOP (P41145 whole entry): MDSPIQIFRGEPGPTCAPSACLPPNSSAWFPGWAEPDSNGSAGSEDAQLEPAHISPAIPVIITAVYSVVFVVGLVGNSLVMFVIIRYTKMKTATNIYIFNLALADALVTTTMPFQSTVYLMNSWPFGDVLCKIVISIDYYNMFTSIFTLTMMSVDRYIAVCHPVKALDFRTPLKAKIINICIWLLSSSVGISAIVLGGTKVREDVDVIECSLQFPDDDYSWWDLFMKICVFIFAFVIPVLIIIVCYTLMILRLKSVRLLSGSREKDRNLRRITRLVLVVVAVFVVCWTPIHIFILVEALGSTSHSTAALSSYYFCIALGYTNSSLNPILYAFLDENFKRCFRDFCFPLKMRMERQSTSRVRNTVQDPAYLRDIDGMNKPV

Chain of delta opioid receptor (DOP) (P41143 whole entry): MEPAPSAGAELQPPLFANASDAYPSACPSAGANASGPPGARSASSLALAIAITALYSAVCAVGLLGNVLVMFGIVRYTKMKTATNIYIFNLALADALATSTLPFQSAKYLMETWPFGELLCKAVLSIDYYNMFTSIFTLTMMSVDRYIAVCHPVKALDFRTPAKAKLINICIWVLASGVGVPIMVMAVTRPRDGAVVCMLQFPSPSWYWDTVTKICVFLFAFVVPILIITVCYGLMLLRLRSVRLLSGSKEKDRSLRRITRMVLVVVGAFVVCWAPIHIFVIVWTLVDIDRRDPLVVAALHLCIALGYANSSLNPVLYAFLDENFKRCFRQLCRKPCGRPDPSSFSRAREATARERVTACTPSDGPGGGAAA
Chain of nociceptin NOP (ORL1) (P41146 whole entry): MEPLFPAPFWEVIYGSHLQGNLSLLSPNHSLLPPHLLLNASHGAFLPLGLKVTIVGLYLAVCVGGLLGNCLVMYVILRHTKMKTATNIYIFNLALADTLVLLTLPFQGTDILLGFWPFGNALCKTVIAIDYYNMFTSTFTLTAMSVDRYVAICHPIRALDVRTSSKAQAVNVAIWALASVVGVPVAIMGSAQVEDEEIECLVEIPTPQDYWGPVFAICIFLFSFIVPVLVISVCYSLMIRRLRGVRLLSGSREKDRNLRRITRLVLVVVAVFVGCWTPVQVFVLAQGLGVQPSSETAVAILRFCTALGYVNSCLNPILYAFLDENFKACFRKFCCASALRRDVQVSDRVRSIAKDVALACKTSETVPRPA
Chain of mu opioid receptor (MOP) (P35372 whole entry): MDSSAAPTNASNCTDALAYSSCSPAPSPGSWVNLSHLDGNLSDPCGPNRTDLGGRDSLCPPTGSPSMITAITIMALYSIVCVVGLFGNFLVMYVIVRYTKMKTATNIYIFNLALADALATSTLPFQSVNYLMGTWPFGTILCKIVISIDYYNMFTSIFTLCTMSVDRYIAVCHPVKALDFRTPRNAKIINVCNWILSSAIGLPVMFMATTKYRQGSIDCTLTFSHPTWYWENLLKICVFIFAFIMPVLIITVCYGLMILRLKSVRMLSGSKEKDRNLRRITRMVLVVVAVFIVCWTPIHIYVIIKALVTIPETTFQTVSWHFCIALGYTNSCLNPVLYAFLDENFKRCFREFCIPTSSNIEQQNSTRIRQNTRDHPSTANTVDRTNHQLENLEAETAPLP
Chain of MOP (P35372 whole entry): as above

Structure (SMILES) | functional effect at MOP [4] | percent displacement of bound radioligand, adrenergic α1B ([6]; 100 nM test compound) | percent displacement of bound radioligand, adrenergic α1D ([7]; 100 nM test compound) | percent displacement of bound radioligand, adrenergic α1D ([7]; 10,000 nM test compound) | percent displacement of bound radioligand, opioid δ ([8]; 10,000 nM test compound) | percent displacement of bound radioligand, opioid μ ([9]; 100 nM test compound) | percent displacement of bound radioligand, opioid μ ([9]; 10,000 nM test compound) | percent displacement of bound radioligand, adrenergic a2A ([10]; 100 nM test compound) | percent displacement of bound radioligand, adrenergic a2A ([10]; 10,000 nM test compound) | percent displacement of bound radioligand, adrenergic α1A ([11]; 100 nM test compound) | percent displacement of bound radioligand, adrenergic α1A ([11]; 10,000 nM test compound) | percent displacement of bound radioligand, adrenergic α2B ([12]; 100 nM test compound) | percent displacement of bound radioligand, adrenergic α2B ([12]; 10,000 nM test compound) | percent displacement of bound radioligand, nociceptin NOP (ORL1) ([13]; 100 nM test compound) | percent displacement of bound radioligand, nociceptin NOP (ORL1) ([13]; 10,000 nM test compound) | percent displacement of bound radioligand, adrenergic α1B ([6]; 10,000 nM test compound) | also measured
CC[C@@H]1CN2CCc3c([nH]c4cccc(OC)c34)[C@@H]2C[C@@H]1/C(=C\OC)C(=O)OC [mitragynine] | partial agonists | −12.5% | – | – | – | – | – | – | – | – | – | – | – | – | – | – | antagonist effect at α−2C [1]: competitive antagonist effects; agonist effect at α1D [2]: partial agonist; antagonist effect at α−1D [2]: competitive antagonist effects; agonist effect at α1A [3]: partial agonist; antagonist effect at α−1A [3]: competitive antagonist effects; antagonist effect at α−1B [5]: competitive antagonist effects
CC[C@@H]1CN2CCc3c([nH]c4cccc(O)c34)[C@@H]2C[C@@H]1/C(=C\OC)C(=O)OC [9-hydroxycorynantheidine] | – | −4.4% | 12.4% | 66.3% | 25.3% | 29.3% | 95.4% | −10.2% | 20.0% | 16.4% | 62.3% | −5.7% | 14.6% | −2.9% | 28.9% | 29.0% | –
CC[C@@H]1CN2CCc3c([nH]c4ccccc34)[C@@H]2C[C@@H]1/C(=C\OC)C(=O)OC [corynantheidine] | – | 19.6% | 73.5% | 101.2% | 31.4% | 39.6% | 96.8% | 27.2% | 95.1% | 45.9% | 100.5% | 8.5% | 79.9% | −1.3% | 27.0% | 91.0% | fold higher affinity at the α−1D receptor than mitragynine ([7]; ratio of Ki versus mitragynine): 131 fold; percent displacement of bound radioligand, opioid δ ([8]; 100 nM test compound): 8.6%
CC[C@@H]1CN2CCc3c([nH]c4cccc(OC)c34)[C@H]2C[C@@H]1/C(=C\OC)C(=O)OC [speciociliatine] | partial agonists | – | – | – | – | – | – | – | – | – | – | – | – | −14.9% | – | – | change in body temperature (hypothermia) [14]: produced hypothermia; lethality (rats dead / rats tested) [15]: 5/21; antinociceptive effects in hot plate test [16]: had antinociceptive effects; agonist / antagonist activity at human opioid receptors [17]: no measurable agonist activity; inhibition of electrically induced twitch contraction [18]: maximum inhibition of electrically induced twitch contraction of guinea pig ileum similar to morphine; functional effect at KOP [19]: no agonist or antagonist effects
